Experiment [1] has as its system PANC-1 (pancreatic cancer). Nature of the experiment: Solid tumor cell growth inhibition, MTT, 72 h (Example 7). The experiment is classed as cell-based, human. As to conditions: Homo sapiens; 72 h, MTT, PANC-1. The method, then: (§1) Human solid tumor cell lines: Hep-2 (laryngeal carcinoma), A549 (human lung cancer), CaES-17 (esophageal cancer cell), PC-3 (prostate cancer), CNE (nasopharyngeal carcinoma cell) and SK-OV-3 (ovarian cancer cell), all of which are purchased from China Center For Type Culture Collection; RKO (human colon adenocarcinoma cell), MGC 803 (human gastric cancer cell), MG63 (osteosarcoma), and U87 MG (malignant glioma cell), all of which are purchased from Fuxiang Bio-tech Co. Ltd., Shanghai, China; PANC-1 (pancreatic cancer), Huh? (human liver cancer cell), Becap37 (human breast cancer cell), and Hela (human cervical cancer cell), all of which are donated by Cancer Research Institute of Zhejiang University, China.
(§2) Reagents: the same as in Example 5.
(§3) Obtaining 4000 well-growing human solid tumor cells and inoculating them into wells of a 96-well cell culture plate. The culture medium is DMEM High Glucose cell culture medium containing 10% fetal bovine serum. The plate is placed in a carbon dioxide cell incubator (5% CO2) at 37° C. and incubated for 24 hours. After been added with tetrandrine derivatives of different concentration and mixing uniformly, the plate is placed in a carbon dioxide cell incubator (5% CO2) at 37° C. and incubated for 72 hours. Then the viable cell concentration is determined by the MTT method and the cell viability (%) after drug treatment is calculated. In this experiment, the cell viability of control group (not treated with any compound) is set as 100%.

Experiment [2] concerns A549 (human lung cancer). The description is as above. The experiment is classed as cell-based. Conditions: Homo sapiens; 72 h, MTT, A549. On the procedure:
as §1, §2, §3

For experiment [3], the system named is Kasumi-1 (acute myeloid leukemia M2 type, AML-M2). The experiment can be described thus: Leukemia cell growth inhibition, MTT, 72 h (Example 5). Conditions: Homo sapiens, Kasumi 1. The experiment is classed as cell-based, human. The source says:
(§4) Leukemia cell lines: leukemia cell lines: K562/adr (drug-resistant, chronic myeloid leukemia, CML), NB4 (acute promyelocytic leukemia, AML), Kasumi-1 (acute myeloid leukemia M2 type, AML-M2), Jurkat (acute lymphoblastic leukemia, ALL), all of which are donated by Cancer Research Institute of Zhejiang University, China; and H9 (acute lymphoblastic leukemia, ALL), which is purchased from China Center for Type Culture Collection.
(§5) Reagents: The standard sample of tetrandrine (TTD) is purchased from Ci Yuan Biotechnology Co., Ltd., Shaanxi, China; and the 5-substituted tetrandrine derivatives of the present invention.
(§6) Obtaining 6000 well-growing leukemia cells and inoculating them into wells of a 96-well cell culture plate. The culture medium is a 1640 cell culture medium containing 10% fetal bovine serum. After adding the tetrandrine derivatives of different concentrations and mixing uniformly, placing the plate in a carbon dioxide cell incubator (5% CO2) at 37° C. and incubating for 72 hours. Then the viable cell concentration is determined by the MTT method.

Experiment [4] relates to K562/adr (drug-resistant, chronic myeloid leukemia, CML). The experiment is described as above. The experiment is classed as cell-based, human. As to conditions: Homo sapiens, K562/Adr; 72 h, MTT.
Source text: as §4, §5, §6

For experiment [5], the system named is MG63 (osteosarcoma). Nature of the experiment: Solid tumor cell growth inhibition, MTT, 72 h (Example 7). The experiment is classed as cell-based, human. As to conditions: Homo sapiens; 72 h, MTT, MG-63. The method, then: as §1, §2, §3
Experiment [6] deals with CaES-17 (esophageal cancer cell). The experiment is described as above. The experiment is classed as cell-based, human. Conditions: Homo sapiens, CaEs17; 72 h, MTT, CAES-17. The method, then: as §1, §2, §3
The subject of experiment [7] is MGC 803 (human gastric cancer cell). The description is as above. Conditions: Homo sapiens. The experiment is classed as cell-based. The method, then:
as §1, §2, §3

Experiment [8] has as its system Becap37 (human breast cancer cell). The experiment is described as above. The experiment is classed as cell-based. Conditions: Homo sapiens; 72 h, MTT, Becap-37. On the procedure: as §1, §2, §3
Experiment [9] concerns Huh7 (human liver cancer cell). The description is as above. The experiment is classed as cell-based. As to conditions: Homo sapiens; 72 h, MTT, Huh-7. The method, then: as §1, §2, §3
For experiment [10], the system named is Jurkat (acute lymphoblastic leukemia, ALL). The experiment can be described thus: Leukemia cell growth inhibition, MTT, 72 h (Example 5). The experiment is classed as cell-based, human. Conditions: Homo sapiens, Jurkat; 72 h, MTT.
Source text: as §4, §5, §6

In experiment [11] the test system is H9 (acute lymphoblastic leukemia, ALL). The experiment is described as above. The experiment is classed as cell-based, human. Conditions: Homo sapiens; 72 h, MTT.
Source text: as §4, §5, §6

For experiment [12], the system named is RPMI8226 (multiple myeloma). The experiment can be described thus: Multiple myeloma cell growth inhibition, MTT, 72 h (Example 6). Conditions: Homo sapiens, RPMI-8226; 72 h, MTT, RPMI8226. The experiment is classed as cell-based, human. On the procedure:
Multiple myeloma and lymphoma cell lines: RPMI8226 (multiple myeloma), purchased from Fuxiang Bio-tech Co. Ltd., Shanghai, China.
as §2
Obtaining 6000 well-growing leukemia cells and inoculating them into wells of a 96-well cell culture plate. The culture medium is a 1640 cell culture medium containing 10% fetal bovine serum. After adding the tetrandrine derivatives of different concentrations and mixing uniformly, placing the plate in a carbon dioxide cell incubator (5% CO2) at 37° C. and incubated for 72 hours. Then the viable cell concentration is determined by the MTT method.

The record followed here is patent US9133207B2, “Tetrandrine derivatives with substituted 5-carbon, preparation method and use thereof” (Hangzhou Bensheng Pharmaceutical Co., Ltd., priority 2011, dated 2015).

Converted amounts (≈) assume the structure as drawn.

A word on the IC50: it is the concentration at which inhibition is half-maximal. A high value points to weaker potency in that assay. Broadly, the IC90 is the point of the concentration-response curve where the effect stands at 90%. As to `COc1ccc2cc1Oc1ccc(cc1)C[C@H]1c3cc(c(OC)cc3CCN1C)Oc1c(OC)c(OC)c(CN)c3c1[C@H](C2)N(C)CC3` [BS-TE-361], the half-maximal inhibitory concentration (IC50) in [1] was found to be 5.07 µg/mL (≈ 7.78 µM); in experiment [2] it was 1.66 µg/mL (≈ 2.55 µM); in [3] it was 0.8 µg/mL (≈ 1.23 µM); in experiment [4], 1.64 µg/mL (≈ 2.52 µM). Also, the IC90 in [1] turned out to be 10.7 µg/mL (≈ 16.4 µM); in experiment [2], 5.1 µg/mL (≈ 7.82 µM); in experiment [3], 2.78 µg/mL (≈ 4.27 µM); in [4], 4 µg/mL (≈ 6.14 µM).
For the compound `COc1ccc2cc1Oc1ccc(cc1)C[C@H]1c3cc(c(OC)cc3CCN1C)Oc1c(OC)c(OC)c(CN(C)C)c3c1[C@H](C2)N(C)CC3` [BS-TE-341], the IC50 in [1] is more than 10 µg/mL; in experiment [5], 3.16 µg/mL (≈ 4.65 µM); in experiment [6], 4.8 µg/mL (≈ 7.06 µM); in experiment [2], more than 16 µg/mL; in experiment [7], 9.67 µg/mL (≈ 14.2 µM); in experiment [8], 9.8 µg/mL (≈ 14.4 µM). Further, the IC50 turned out to be 4.71 µg/mL (≈ 6.93 µM) in experiment [9]; 5.64 µg/mL (≈ 8.3 µM) in experiment [3]; 1.8 µg/mL (≈ 2.65 µM) in [4]; 9.14 µg/mL (≈ 13.4 µM) in [10]; 6.87 µg/mL (≈ 10.1 µM) in experiment [11]; 0.35 µg/mL (≈ 0.515 µM) in [12]. Further, the IC90 in [1] was more than 10 µg/mL; in [5], 9.8 µg/mL (≈ 14.4 µM); in experiment [6] it was 25.8 µg/mL (≈ 37.9 µM); in experiment [2], more than 16 µg/mL; in experiment [7] it was 15.1 µg/mL (≈ 22.2 µM); in [8], more than 10 µg/mL. Also, the IC90 in experiment [9] was 7.88 µg/mL (≈ 11.6 µM); in experiment [3], 16 µg/mL (≈ 23.5 µM); in experiment [4], 16 µg/mL (≈ 23.5 µM); in experiment [10], more than 16 µg/mL; in experiment [11], 22.1 µg/mL (≈ 32.5 µM); in experiment [12], 3.31 µg/mL (≈ 4.87 µM).
As for `COc1ccc2cc1Oc1ccc(cc1)C[C@H]1c3cc(c(OC)cc3CCN1C)Oc1c(OC)c(OC)c(CSc3ccccc3)c3c1[C@H](C2)N(C)CC3` [BS-TE-421], the IC50 in experiment [1] stood at 3.76 µg/mL (≈ 5.05 µM); in experiment [5], 1.08 µg/mL (≈ 1.45 µM); in experiment [2] it was 3.4 µg/mL (≈ 4.56 µM); in [7] it was 3.44 µg/mL (≈ 4.62 µM); in experiment [8], 3.5 µg/mL (≈ 4.7 µM); in experiment [9], 1.52 µg/mL (≈ 2.04 µM). Besides, the IC50 in experiment [3] came to 3.02 µg/mL (≈ 4.05 µM); in experiment [4], 0.9 µg/mL (≈ 1.21 µM); in [12], 0.19 µg/mL (≈ 0.255 µM). Besides, the IC90 in [1] was determined as 6.73 µg/mL (≈ 9.03 µM); in [5] it was 4.46 µg/mL (≈ 5.99 µM); in [2], 8 µg/mL (≈ 10.7 µM); in experiment [7] it was 4.8 µg/mL (≈ 6.44 µM); in [8] it was 4.86 µg/mL (≈ 6.52 µM); in [9] it was 3.27 µg/mL (≈ 4.39 µM). Besides, the IC90 was found to be 7.51 µg/mL (≈ 10.1 µM) in experiment [3], 7.91 µg/mL (≈ 10.6 µM) in [4] and 1.28 µg/mL (≈ 1.72 µM) in [12].
